Reference: BigSolDB 2.1

Clc1ccccc1C(c1ccccc1)(c1ccccc1)n1ccnc1
solubility (mole fraction)
Settings | 278.15 K | 283.15 K | 288.15 K | 293.15 K | 298.15 K | 303.15 K | 308.15 K | 313.15 K | 318.15 K | 323.15 K
in 1,4-dioxane | – | – | 0.0385 | 0.0441 | 0.05 | 0.0568 | 0.0643 | 0.0731 | 0.0813 | 0.091
in acetonitrile | 0.00173 | 0.00212 | 0.00264 | 0.00316 | 0.00378 | 0.00453 | 0.00539 | 0.00636 | 0.00741 | 0.00886
in isopropanol | 0.00782 | 0.00947 | 0.0114 | 0.0137 | 0.0164 | 0.0195 | 0.0228 | 0.0266 | 0.031 | 0.036
in n-propanol | 0.0125 | 0.0151 | 0.0181 | 0.0215 | 0.0257 | 0.0301 | 0.0353 | 0.0413 | 0.0477 | 0.0554
in water | 9.28e-09 | 1.22e-08 | 1.56e-08 | 1.98e-08 | 2.47e-08 | 3.11e-08 | 3.85e-08 | 4.78e-08 | 5.9e-08 | 7.07e-08
